Holding throughout (format): cell-based, human
The test system of experiment [1] is PBL. The experiment is described as follows: Proliferation of PBL, DC indirect presentation (peptide-pulsed autologous DC). The note with it: for PBL Index of stimulation (SI) via DC: naive donors, CPM sample / CPM control, representative of 5 experiments; for Optimal dose via DC: optimal dose required for PBL activation; for Optimal dose via DC / Peak of Proliferation (Hours) via DC: average of 5 experiments; for Optimal dose via DC / IS (SI of the peptides as indicated in Table 7): six donors; for Peak of Proliferation (Hours) via DC: visual inspection by light microscopy daily during 5 days; for IS (SI of the peptides as indicated in Table 7): one out of five experiments. The procedure: (§1) Human PBMC were separated from buffy coat samples of naive donors using Ficoll UNI-SEPmaxi tube. Separated cells were suspended in RPMI medium supplemented with 10% FCS, L-Glutamine, Sodium Pyruvate, MEM-EAGLE non-essential amino-acids, HEPES and Gentamycin Sulphate (Bet-Haemek Industries, IL) and cultivated for 4 h at 37° C. in a culture dish (Corning 150 mm×25 mm). Adherent cells were collected and cultured for 7 days in serum free DCCM-1 medium supplemented with L-Glutamine, huIL-4 (1000 IU/ml) (Cytolab IL) and GM-CSF-80 ug/ml (Cytolab IL). On day seven floating cells were collected and loaded with 50 ug/ml of examined peptide for 18 h at 37° C.
(§2) Proliferation analysis was conducted in three different methods. In all three methods, plates were cultured for 3-5 days under visual control and then 0.5 […]Cu/well of 3[H] (Amersham) was added for additional culture of to 18 h at 37° C. In the last step, plates were harvested and the radioactive counts were measured in a □ counter. • 1. DC indirect presentation: In the first method, 100 µl of 2×10^6 thawed PBL were placed in U-shape Bottom 96 well plate (Nunc) with RPMI medium supplemented with 5% H AB serum, L-Glutamine, Sodium Pyruvate, MEM-EAGLE non-essential amino-acids, HEPES and Gentamycin. At the next stage 100 µl of 25×10^4 peptide-pulsed DC were added to each three wells of PBL and underwent proliferation analysis as described above. • 2. PBL direct presentation: In the 2nd method, 100 µl of 2×10^6 PBL were placed in Flat Bottom 96 well plates (Corning) and stimulated with different concentrations (0.05 ug/ml-2 ug/ml) of peptides. In the next step the cells underwent proliferation analysis as described above. • 3. PBMC direct presentation: In third method PNMC were used under similar conditions as described for the second method.
In the first set of experiments, the 21mer ImMucin, its different 9mer epitopes and other control epitopes (Table 3) were evaluated in proliferation assays with the aim of finding their optimal mode of presentation, stimulated dose as well as their peak of activity (time wise).
To evaluate the most efficient method for priming of PBLs with the different peptides, the following methods were compared:
a. In-direct presentation of the peptide via Autologues-pulsed DC
(§3) Five experiments were performed according to the protocol described in material and methods with buffy-coat enriched PBLs obtained from six different naive donors (obtained from the Israeli blood bank).

Experiment [2] relates to PBL. The experiment is described as follows: Proliferation of PBL, direct presentation of peptide without APC. Particulars: for PBL Index of stimulation (SI) Direct no APC: naive donors, representative of 5 experiments; for Optimal dose Direct no APC: optimal dose required for PBL activation, six donors; for Optimal dose Direct no APC / Peak of Proliferation (Hours) Direct no APC: average of 5 experiments; for Peak of Proliferation (Hours) Direct no APC: visual inspection daily during 5 days.
Procedure: In all three methods, plates were cultured for 3-5 days under visual control and then 0.5 □Cu/well of 3[H] (Amersham) was added for additional culture of to 18 h at 37° C. […] DC indirect presentation: In the first method, 100 µl of 2×10^6 thawed PBL were placed in U-shape Bottom 96 well plate (Nunc) with RPMI medium supplemented with 5% H AB serum, L-Glutamine, Sodium Pyruvate, MEM-EAGLE non-essential amino-acids, HEPES and Gentamycin. At the next stage 100 µl of 25×10^4 peptide-pulsed DC were added to each three wells of PBL and underwent proliferation analysis as described above. • 2. PBL direct presentation: In the 2nd method, 100 µl of 2×10^6 PBL were placed in Flat Bottom 96 well plates (Corning) and stimulated with different concentrations (0.05 ug/ml-2 ug/ml) of peptides. In the next step the cells underwent proliferation analysis as described above. • 3. PBMC direct presentation: In third method PNMC were used under similar conditions as described for the second method.
Direct presentation of peptides to PBL without any APC

In the next experiment the test system is PBMC. Put plainly: Proliferation, direct presentation of peptide via PBMC (monocytes). The note with it: for PBL Index of stimulation (SI) via PBMC: naive donors, representative of 5 experiments; for Optimal dose via PBMC: optimal dose required for PBL activation, six donors; for Optimal dose via PBMC / Peak of Proliferation (Hours) via PBMC: average of 5 experiments; for Peak of Proliferation (Hours) via PBMC: visual inspection daily during 5 days. The procedure:
as §2
b. Direct presentation of the peptides via PBMC i.e. monocytes
as §3

Experiment [3] relates to lymphocytes from naive donors. Put plainly: Proliferation assay, kinetics of lymphocyte activation as summarised in text (presentation mode not stated). Particulars: summary of five experiments. On the procedure:
as §2
A different parameter for assessing the properties of ImMucin and the other VXL-peptide epitopes is by analyzing the time until a maximal peak of activity occurs and the optimal dose for maximal stimulation. Maximal peak of PBL activation is determined when <50% of the PBLs appear in clumps. In these experiments, the kinetic (time) in the proliferation of lymphocytes from the six naive donors stimulated at a fix dose of 0.05-1 ug/ml by ImMucin and other VXL-Peptides, was observed.

Experiment [4] has as its system PBL. Put plainly: ELISA of cytokine secretion by PBL stimulated once with peptide-pulsed DC. Particulars: peptide DC ratio 16:1, one out of five experiments, six donors. The procedure: as §1
(§4) Cytokine release was studied during the culture of stimulated T-cells. The evaluated samples were collected from the T cell culture medium on day 2, 3, and 5 and stored until use at −20° C.
(§5) […] of the selected capture antibody (e.g. anti-Hu IFN-Gamma, or anti-Hu TNF-alfa or anti IL-2) were added to each well at the final concentration of 5 μg/ml in PBS. Plates were incubated for 2 h at R.T. or over night at 4° C. Next, […] of blocking solution were added for an incubation of 2 h at R.T. […] of evaluated samples were added in duplicate into 2 wells for 2 hours at RT. After 2 h of incubation at R.T plates were washed λ4 times in washing solution. In the next step, a Biotin-conjugated detection antibody (relevant to coated antibody) was added at a final concentration of 10 μg/ml in total volume of 100 μl for 1 h at R.T. Finally, 100 μl/well working dilution (1:10000 in Blocker solution) of Streptavidin-HRP were added to each well and incubated for 1 h at R.T.
(§6) Plates were washed λ6 times with PBS-Tween (0.4%) and 100 μl/well of TMB/E Solution (CHEMICON, Catalog #ES001) was added. The plates were then exposed until blue color appeared in the wells of the positive control and no color was detected in the blank wells. To stop the color reaction, 50 μl/well of 10% of Sulfuric acid was added. The plates were counted in ELISA-Reader using a 450 nm filter.

In experiment [5] the test system is ImMucin specific T-cell subpopulation. The experiment is described as follows: Proliferation of the ImMucin-specific T-cell subpopulation after three stimulations. Particulars: one out of two experiments, four donors.
Excerpt: (§7) Thawed PBLs underwent 1st stimulation with ImMucin pulsed Autologues DC at a ratio of 20:1 and cultured for 7 days in dedicated T cell Medium. T cell medium contained RPMI medium supplemented with 10% FCS, L-Glutamine, Sodium Pyruvate, MEM-EAGLE non-essential amino-acids, HEPES and Gentamycin Sulphate (Bet-Haemek Industries, IL) as well as with 50 IU/ml of recombinant IL-7 (Cytolab IL). For the second stimulation, PBL were transferred to adherent autologues ImMucin-pulsed PBMC and cultured for additional 5 days in T cell Medium. At the end of the 5 days, medium was partial replaced with fresh medium containing 1 ug/ml of ImMucin and 50 IU/ml IL-2 for a third stimulation of 48 h at 37° C. Following the last stimulation ImMucin T cell line was checked for immune activation properties.
as §2
(§8) For that purpose, an enriched ImMucin-specific T cell subpopulation was produced via repeated stimulation with ImMucin. The specificity of the subpopulation for ImMucin, as well as to the other VXL epitopes, was examined using proliferation assays, cytokine release assays, FACS analysis in which the percentage and type of cells enriched during the enrichment process was analyzed, and using a CTL assay against selected target cells.
(§9) For producing the specific T cell subpopulation PBL were stimulated three times for 7, 5 and 2 days with ImMucin presented via DC and PBMC. Following the 3rd stimulation the cells were evaluated against the different VXL epitopes.

Experiment [6] has as its system T-Cell specific subpopulation (Clones). The experiment is described as follows: ELISA of cytokine secretion by the T-cell specific subpopulation (clones) stimulated with peptides. Particulars: two experiments, four donors.
Excerpt: as §7, §4, §5, §6, §8, §9
In general terms: In an ELISA, binding on a coated surface is turned into a signal by an enzyme label.

No end group written: not given here.

For the sequence ALCRWGLLL [VXL-8, reference compound], in the experiment on PBL [1], the “PBL Index of stimulation (SI) via DC” value turned out to be 1.75, the “Optimal dose via DC” value is 12.5-25 × × 10e6/well and the “Peak of Proliferation (Hours) via DC” value was 120 h. In the experiment on PBL [2], the “PBL Index of stimulation (SI) Direct no APC” value (from here on “PBL Index … (SI) Direct no APC”) is 0, the “Optimal dose Direct no APC” value was “No Influence” and the “Peak of Proliferation (Hours) Direct no APC” value (shortened to “Peak … (Hours) Direct no APC”) is on record as “No proliferation”. In the experiment with PBMC, the “PBL Index of stimulation (SI) via PBMC” value is reported as 1.5, the “Optimal dose via PBMC” value lay within 0.05 to 1 µg/mL and the “Peak of Proliferation (Hours) via PBMC” value came to 120 h. Also, in experiment [3], the “peak of proliferation / maximum stimulation” value turned out to be 120 h.

Regarding LLLLTVLTV [VXL-2, LLLLTVLTV], in the experiment with PBL [1], the “PBL Index of stimulation (SI) via DC” value is given as 2.2, the “IS (SI of the peptides as indicated in Table 7)” value is 2.2, the “Optimal dose via DC” value was 12.5-25 × × 10e6/well and the “Peak of Proliferation (Hours) via DC” value is 120 h. Moreover, in the experiment with PBL [2], the “PBL Index … (SI) Direct no APC” value came out at 0, the “Optimal dose Direct no APC” value is “No Influence” and the “Peak … (Hours) Direct no APC” value is recorded as “No proliferation”. For the same sequence, in the experiment with PBMC, the “PBL Index of stimulation (SI) via PBMC” value is reported as 1.2, the “Optimal dose via PBMC” value lay in the range of 0.05 to 1 µg/mL and the “Peak of Proliferation (Hours) via PBMC” value worked out at 120 h. In the experiment on PBL [4], the IFN-gamma was determined as 0 ng/mL, the IL-2 was determined as 0 ng/mL and the TNF-Alfa came to 0 ng/mL. In experiment [5], the “IS (Average)” value is on record as 3.275 and the “IS (Range)” value was 1.45-5.1. In experiment [6], the “IL-2 % of clones” value is 50%, the “IL-2 Range” value lay within 2.53 to 10.2 ng/mL, the “INF-gamma % of clones” value is 25% and the “INF-gamma Range” value lay in the range of 1.4 to 8.9 ng/mL. In addition, in experiment [6], the “TNF-Alfa % of clones” value is listed as 83% and the “TNF-Alfa Range” value was 1.9 to 9.4 ng/mL. Besides, in experiment [6] (listed as VXL2), the “IL-2 Range ng/ml” value is “high” and the “INF-gamma Range ng/ml” value is listed as “high”. In addition, in experiment [3], the “peak of proliferation / maximum stimulation” value came to 120 h.

With LLLTVLTVV [VXL-1, LLLTVLTVV], the “PBL Index of stimulation (SI) via DC” value with PBL [1] (listed as VLX-1) was determined as 3.2. Besides, in the experiment with PBL [1], the “IS (SI of the peptides as indicated in Table 7)” value was 3.2, the “Optimal dose via DC” value was 12.5-25 × × 10e6/well and the “Peak of Proliferation (Hours) via DC” value turned out to be 120 h. Besides, in the experiment with PBL [2], the “PBL Index … (SI) Direct no APC” value came out at 0, the “Optimal dose Direct no APC” value is “No Influence” and the “Peak … (Hours) Direct no APC” value is reported as “No proliferation”. For the same sequence, in the experiment with PBMC, the “PBL Index of stimulation (SI) via PBMC” value came out at 1.59, the “Optimal dose via PBMC” value lay within 0.05 to 1 µg/mL and the “Peak of Proliferation (Hours) via PBMC” value was 120 h. In the experiment with PBL [4], the IFN-gamma came out at 0 ng/mL and the IL-2 came out at 0 ng/mL. Besides, in experiment [5], the “IS (Average)” value was determined as 3.05 and the “IS (Range)” value is 1.66-4.4. Further, in experiment [6], the “IL-2 % of clones” value stood at 83%, the “INF-gamma % of clones” value was 33%, the “TNF-Alfa % of clones” value is reported as 83% and the “TNF-Alfa Range” value was 2.7 to 9.8 ng/mL. Further, in experiment [3], the “peak of proliferation / maximum stimulation” value came to 120 h.

For TQSPFFLLL [VXL-4, TQSPFFLLL], in the experiment on PBL [1], the “PBL Index of stimulation (SI) via DC” value is reported as 3.74, the “IS (SI of the peptides as indicated in Table 7)” value came out at 3.4, the “Optimal dose via DC” value was 12.5-25 × × 10e6/well and the “Peak of Proliferation (Hours) via DC” value is 72-96 h^. In the experiment on PBL [2], the “PBL Index … (SI) Direct no APC” value came out at 0, the “Optimal dose Direct no APC” value is recorded as “No Influence” and the “Peak … (Hours) Direct no APC” value is recorded as “No proliferation”. Further, in the experiment with PBMC, the “PBL Index of stimulation (SI) via PBMC” value is 1.45 and the “Peak of Proliferation (Hours) via PBMC” value is on record as 72-96 h^. Also, in the experiment with PBL [4], the IFN-gamma stood at 0 ng/mL, the IL-2 stood at 0 ng/mL and the TNF-Alfa is 17.1 ng/mL. Further, the TNF-Alfa result with PBL [4] (listed as VXL4) was “highest cytokine release”. In experiment [5], the “IS (Average)” value was found to be 2.665 and the “IS (Range)” value is 2.4-2.93. In experiment [6], the “IL-2 % of clones” value came to 33%, the “IL-2 Range” value lay in the range of 3.8 to 8.7 ng/mL, the “INF-gamma % of clones” value worked out at 33% and the “INF-gamma Range” value was in the range of 2.6 to 8.4 ng/mL. Also, in experiment [6], the “TNF-Alfa % of clones” value was found to be 58% and the “TNF-Alfa Range” value is 3.1 to 9.8 ng/mL. In experiment [6] (listed as VXL4), the “IL-2 Range ng/ml” value is reported as “high” and the “INF-gamma Range ng/ml” value was “high”.

Values taken from US11179452B2, “Antigen specific multi epitope vaccines” (priority 2006, dated 2021).
